Assay results taken from PMC12371494, “Discovery of YTHDF2 Ligands by Fragment-Based Design” (ACS Bio & Med Chem Au, 2025).
Read-outs that look alike come from different tables or passages of the source.

Columns and labels:
[1] = target: T1, GST-YTHDF2 (Homo sapiens, UniProt Q9Y5A9); assay: HTRF-based binding assay, competition with m6A-oligoRNA, DF2; details: for Improvement of HTRF IC50 compared to fragment 14: HTRF DF2; for Single-dose residual signal at 100 µM, DF2: HTRF, 100 µM compound, normalized; for LE (ligand efficiency, DF2): LE = -RT ln IC50/HAC from HTRF IC50; for IC50: dose-response, competitor m6A-oligoRNA, read-out: DF2 IC50 (HTRF assay)
T1 construct: made in house
T1 sequence (Q9Y5A9 1-579): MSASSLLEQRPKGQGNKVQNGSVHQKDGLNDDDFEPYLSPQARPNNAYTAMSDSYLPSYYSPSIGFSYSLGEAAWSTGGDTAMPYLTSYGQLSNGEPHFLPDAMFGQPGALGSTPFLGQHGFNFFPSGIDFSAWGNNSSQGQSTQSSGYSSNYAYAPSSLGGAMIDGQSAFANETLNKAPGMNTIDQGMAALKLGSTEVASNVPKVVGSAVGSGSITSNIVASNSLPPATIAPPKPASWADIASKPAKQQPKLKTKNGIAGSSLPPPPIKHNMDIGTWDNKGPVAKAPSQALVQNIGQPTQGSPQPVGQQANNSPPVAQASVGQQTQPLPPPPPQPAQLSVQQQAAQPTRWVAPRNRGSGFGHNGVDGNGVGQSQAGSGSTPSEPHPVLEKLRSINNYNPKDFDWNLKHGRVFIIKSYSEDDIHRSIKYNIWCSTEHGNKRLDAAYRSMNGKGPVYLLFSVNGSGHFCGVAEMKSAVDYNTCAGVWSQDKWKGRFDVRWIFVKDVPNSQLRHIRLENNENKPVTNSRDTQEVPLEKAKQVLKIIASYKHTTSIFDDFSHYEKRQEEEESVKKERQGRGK

[2] = target: T2, GST-YTHDF3 (Homo sapiens, UniProt Q7Z739); assay: HTRF-based binding assay, DF3; details: for Single-dose residual signal at 100 µM, DF3: 100 µM compound, normalized; for IC50: dose-response
T2 construct: made in house
T2 sequence (Q7Z739 1-585): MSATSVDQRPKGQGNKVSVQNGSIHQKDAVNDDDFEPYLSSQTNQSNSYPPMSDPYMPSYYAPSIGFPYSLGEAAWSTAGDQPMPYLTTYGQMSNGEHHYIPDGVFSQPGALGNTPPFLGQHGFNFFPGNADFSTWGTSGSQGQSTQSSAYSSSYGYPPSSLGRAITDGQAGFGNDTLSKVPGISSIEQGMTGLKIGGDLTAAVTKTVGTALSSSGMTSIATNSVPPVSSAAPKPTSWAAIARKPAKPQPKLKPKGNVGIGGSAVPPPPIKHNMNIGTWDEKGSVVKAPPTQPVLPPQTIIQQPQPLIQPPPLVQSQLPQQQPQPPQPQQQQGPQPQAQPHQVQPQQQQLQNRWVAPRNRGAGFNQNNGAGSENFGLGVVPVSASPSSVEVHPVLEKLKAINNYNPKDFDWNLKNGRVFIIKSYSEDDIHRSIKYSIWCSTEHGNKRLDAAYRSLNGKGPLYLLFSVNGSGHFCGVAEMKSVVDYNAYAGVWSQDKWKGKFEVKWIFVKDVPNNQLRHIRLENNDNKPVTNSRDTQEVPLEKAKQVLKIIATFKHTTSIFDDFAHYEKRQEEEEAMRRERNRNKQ
Experimental: The HTRF-based assay was employed to evaluate the selectivity of the series against other DF proteins.
A dose–response experiment on DF1 and DF3 was conducted for compounds 17, 18, 23, and 27 (Figure S5). Compounds 17, 18, and 27 are active on three DF proteins. […] In contrast, compound 23 is selective for DF2, with residual signals (at the highest employed concentration of 62.5 μM) of 51 and 87% for DF1 and DF3, respectively.
GST-YTHDC1, GST-YTHDF1, GST-YTHDF2, and GST-YTHDF3 were purified as previously reported. The HTRF assay was assembled as detailed in ref with the only difference being that the starting concentration of the dose–response experiments used for the IC50 determination was variated dependently from the tested compound. The same protocol was applied to the four proteins. The competitive inhibition data of GST-YTHDF1 (single dose experiment at 100 μM compound concentration and dose–response curves), GST-YTHDF3 (single dose experiment at 100 μM compound concentration and dose–response curves), and GST-YTHDF2 (single dose experiment at 100 μM compound concentration) were normalized as described in ref to mitigate interference. The signal was measured as described in ref .

[3] = target: T3, YTHDF2 (Homo sapiens, UniProt Q9Y5A9); assay: DNA-fluorescence polarization (FP) competition assay, DF2; type: binding
T3 sequence (Q9Y5A9 1-579): T1 sequence (Q9Y5A9 1-579)
Experimental: An FP competition assay was used to further validate the binding of the compounds to DF2. The main difference with respect to a previously published FP assay is the use of an oligo-DNA as competitor ligand (see Materials and Methods section). […] These differences might originate from the varying conditions in the two assays, such as the competitor mRNA (5′-biotin-[…](m6A)-CUAAGCU-3′) in HTRF and DNA (5′-FAM-[…](m6A)-CTAAGCT-3′) in FP, the salt concentration (150 mM NaCl and 100 mM KF in HTRF, and 150 mM NaCl in FP), and the pH (7.5 in HTRF and 7.4 in FP). The FP-based assay was also employed to assess the selectivity against DC1 and DC2 (see Selectivity section).
(§1) For fluorescence polarization (FP) experiments, a 5′-fluorescein-labeled m^6A-DNA probe (5′-FAM-[…](m6A)-CTAAGCT-3′) was synthesized by Microsynth AG.
(§2) The final concentration of the fluorescein-labeled DNA was kept constant at 3 nM. For YTHDC2 measurements, the protein concentration was set to 25 nM, while for YTHDF2 measurements, it was set to 10 nM, and for YTHDC1, it was set at 15 nM. The compound concentration was serially diluted to obtain the dose–response curve. The competition experiments were conducted in a final volume of 20 μL in a buffer containing 20 mM Tris–HCl (pH 7.4), 150 mM NaCl, and 0.01% bovine serum albumin (BSA), using a 384-well black flat-bottomed microplate (Corning 3575).
(§3) After incubating the mixture for 1 h, the anisotropy values were measured using a Tecan SPARK plate reader with 485/20 nm excitation and 535/25 nm emission polarization filters, suitable for fluorescein, at 25 °C. To obtain the equilibrium dissociation constant (K d), the IC50 values were first derived by fitting a dose–response curve to the data using nonlinear regression analysis in GraphPad Prism. These IC50 values were then converted to K d by using the Cheng–Prusoff equation: Kd=IC50/1+[L]/Kdprobe
(§4) IC50 is the observed value from FP assay, [L] is the probe concentration used, and K d ^probe is the binding affinity of probe for the target.

[4] = target: YTHDC1 (Homo sapiens, UniProt Q96MU7); assay: DNA-fluorescence polarization (FP) competition assay, DC1; type: binding; details: for Selectivity DF2 over DC1 (Kd ratio DC1/DF2): FP Kd values
Experimental: The binding affinity for DC1 could not be evaluated by HTRF because of interference of the compounds with the assay, which has a smaller assay window when performed with DC1 compared to the DF proteins. Thus, the FP assay was used to evaluate binding to DC1 and DC2.
as §1, §2, §3, §4

[5] = Cheng-Prusoff from FP IC50, probe Kd 5 nM, two biological replicates

| Improvement of HTRF IC50 compared to fragment 14 [1] | Single-dose residual signal at 100 µM, DF2 [1] | LE (ligand efficiency, DF2) [1] | IC50 [1] | Single-dose residual signal at 100 µM, DF3 ([2]; HTRF) | IC50 [2] | Kd [3] | Kd [4] | Kd [3, 5] | Selectivity DF2 over DC1 (Kd ratio DC1/DF2) [4] | IC50 ([3]; FP IC50 before conversion (Kd = IC50/1.6)) | Potency for DF2 relative to 6-cyclopropyluracil ([1]; HTRF IC50 values) | Residual signal DF3 at highest concentration ([2]; HTRF, 62.5 μM compound) | SMILES |
| --- | --- | --- | --- | --- | --- | --- | --- | --- | --- | --- | --- | --- | --- |
| 3 fold | 4% | 0.36 kcal/(mol HAC) | 5.4 µM | 19% | 53 µM | 0.61 µM | 6.9 µM | – | – | – | – | – | O=C(O)c1ccc(-c2csc3[nH]c(=S)[nH]c(=O)c23)cc1 [Compound 18] |
| – | 4% | – | 27 µM | 8% | – | – | – | 8.8 µM | – | – | – | – | O=c1[nH]c(=S)[nH]c2scc(-c3ccc(Br)cc3)c12 [Compound S75] |
| – | 8% | – | 62 µM | 16% | – | – | – | 7.5 µM | – | – | – | – | CCOC(=O)c1csc2[nH]c(=S)[nH]c(=O)c12 [Compound S89] |
| – | 3% | 0.45 kcal/(mol HAC) | 13 µM | 12% | – | 3.1 µM | 47 µM | – | – | – | – | – | CC(=O)c1sc2[nH]c(=S)[nH]c(=O)c2c1C [Compound 20] |
| – | 3% | 0.26 kcal/(mol HAC) | 20 µM | 12% | – | 2.5 µM | 24 µM | – | – | – | – | – | Cc1c(C(=O)NCc2cccc(C(=O)O)c2)sc2[nH]c(=S)[nH]c(=O)c12 [Compound 24] |
| – | 8% | 0.60 kcal/(mol HAC) | 18 µM | 23% | – | 3.8 µM | 32 µM | – | ~8 fold | – | – | – | O=c1[nH]c(=S)[nH]c2sccc12 [Compound 14] |
| – | 13% | 0.47 kcal/(mol HAC) | 14 µM | 36% | – | 1.9 µM | 40 µM | – | – | – | – | – | NC(=O)c1csc2[nH]c(=S)[nH]c(=O)c12 [Compound 31] |
| – | 7% | 0.32 kcal/(mol HAC) | 14 µM | 26% | – | 1.3 µM | 32 µM | – | – | – | – | – | Cc1c(C(=O)NCCCC(=O)O)sc2[nH]c(=S)[nH]c(=O)c12 [Compound 25] |
| 3 fold | 4% | 0.35 kcal/(mol HAC) | 4.7 µM | 7% | 21 µM | 1.2 µM | 5 µM | – | – | – | – | – | COC(=O)c1ccc(-c2csc3[nH]c(=S)[nH]c(=O)c23)cc1 [Compound 17] |
| – | 5% | 0.34 kcal/(mol HAC) | 32 µM | 13% | – | 1.3 µM | 27 µM | – | – | 2 µM | – | – | O=c1[nH]c(=S)[nH]c2scc(-c3ccc(O)cc3)c12 [Compound 19] |
| – | 6% | – | 24 µM | 12% | – | – | – | 11 µM | – | – | – | – | COc1ccc(-c2csc3[nH]c(=S)[nH]c(=O)c23)cc1 [Compound S76] |
| – | 5% | 0.42 kcal/(mol HAC) | 6.3 µM | 10% | – | 4.4 µM | 36 µM | – | – | – | – | – | CCOC(=O)c1sc2[nH]c(=S)[nH]c(=O)c2c1C [Compound 21] |
| – | 12% | – | 33 µM | 35% | – | – | – | 5.6 µM | – | – | – | – | O=c1[nH]c(=S)[nH]c2scc(C3CCCCC3)c12 [Compound S77] |
| – | 5% | 0.31 kcal/(mol HAC) | 10 µM | 18% | – | 10 µM | 92 µM | – | – | – | – | – | Cc1c(C(=O)NCc2ccccc2)sc2[nH]c(=S)[nH]c(=O)c12 [Compound 22] |
| – | 14% | – | 60 µM | 34% | – | – | – | 10 µM | – | – | – | – | O=C(O)c1csc2[nH]c(=S)[nH]c(=O)c12 [Compound S90] |
| 3- to 4 fold | 7% | 0.35 kcal/(mol HAC) | 4.9 µM | 15% | – | 17 µM | 61 µM | – | – | – | – | – | Cc1c(-c2ccc([N+](=O)[O-])cc2)sc2[nH]c(=S)[nH]c(=O)c12 [Compound 26] |
| – | 9% | 0.31 kcal/(mol HAC) | 11 µM | 33% | > 60 µM | 1.3 µM | 120 µM | – | ~100 fold | – | 15 factor | 87% | Cc1c(C(=O)NCc2cccnc2)sc2[nH]c(=S)[nH]c(=O)c12 [Compound 23] |
| 3- to 4 fold | 0% | 0.39 kcal/(mol HAC) | 3.9 µM | 5% | 50 µM | 1.9 µM | 14 µM | – | – | – | – | – | Cc1c(-c2ccc(N)cc2)sc2[nH]c(=S)[nH]c(=O)c12 [Compound 27] |
| – | 13% | – | 33 µM | 35% | – | – | – | 6.2 µM | – | – | – | – | O=c1[nH]c(=S)[nH]c2sc(Cc3ccccc3)cc12 [Compound S85] |
